“Also recorded” adds a separate entry of the source. Where two headings read alike, the source gives them in different places.
What was measured:
[1] = test system: Pseudomonas aeruginosa biofilm; experiment: Sequential application of CDA then biocide on 3-day-old biofilm grown in CDC biofilm reactor (single tube method); assay type: cell-based; details: for effect on biofilm of biocides applied alone, compared with each other: Example 8, 5 ppm, 1 h (FIG. 17)
[2] = test system: biofilm formed by mixed bacteria (Staphylococcus aureus 6538, Bacillus mycoides 6462 and Pseudomonas aeruginosa 700888); experiment: Sequential application of CDA then biocide on mixed-bacteria biofilm grown in CDC biofilm reactor; assay type: cell-based
[3] = test system: P. aeruginosa strain PA14 biofilm; experiment: Simultaneous application of CDA and biocide on 3-day biofilm in 24-well plates; assay type: cell-based, Pseudomonas aeruginosa; details: for Log reduction vs. control: biocide alone / Enhancement / Log reduction vs. control: combination of the 310 nm CDA and biocide: biocide 10 ppm; for Enhancement: simultaneous 310 nm CDA; for Log reduction vs. control: combination of the 310 nm CDA and biocide: simultaneous application
Method: The effect of bromine-containing biocide in combination with CDA on pre-grown biofilms was studied. The experiment was carried out utilizing (A) the P. aeruginosa strain PA14 and (B) mixed bacterial species derived from environmental and industrial water.
Bacteria were cultured in EPRI medium supplemented with Hutners mineral solution and glucose (0.2%). Microorganisms were incubated at room temperature (22° C.), under aerobic conditions with shaking. The biofilm culture system used included polystyrene 24-well plates that were treated with protein to enhance attachment and growth of biofilm bacteria according to the method described in Davies D G, Marques C N, 2009, J Bacteriol 191:1393-1403.
Following inoculation with 1 mL bacterial culture, spent medium was removed and replaced with sterile medium every 24 hours for 3 days, and a final medium exchange was performed 3 hours prior to treatment. Additionally, the medium was exchanged prior to treatment in order to remove planktonic bacteria. Treatments consisted of 100 μL of 310 nM CDA and bromine-containing biocide, or bromine-containing biocide alone at concentrations used in commercial water treatment, water was used as a carrier, for a contact time determined by activity of each biocide and ranging from 1 hour to 24 hours, as detailed below for each of the tested biocides.
Following the treatment, the medium from each well was removed by pipet and 1 mL of DE neutralization broth was added in order to stop the treatment. Bacteria from each well were then removed by scraping the biofilm formed in the well with a sterile cell-scraper, and 1.0 mL of culture was transferred to chilled (4° C.) 9.0 mL DE neutralizing broth and homogenized for 15 seconds at 40,000 rpm on ice. Further dilutions were performed prior to enumeration (further neutralizing biocide activity). Recovery of bacteria were tested at different dilutions of biocide in water, in LB medium with thioglycolate and in DE neutralizing broth to ensure the active agent was properly neutralized. Viable bacteria were enumerated via the drop plate method. Each biocide was evaluated using 24-well plates with 8 wells each for the control cultures (Ctl) inoculated with P. aeruginosa but not treated, a CDA minus test (−CDA) treated with bromine-containing biocide only, and a CDA plus test treated with bromine-containing biocide and CDA (+CDA).

[4] = test system: mix of planktonic bacteria (E. Coli ATCC 11229, S. aureus ATCC 6538, Enterobacter aerogenes ATCC 130489, P. aeruginosa ATCC 13388); experiment: Quantitative suspension test (modified EN 1040) on planktonic bacteria, sequential CDA then biocide; assay type: cell-based; details: 2.5 ppm BCDMH 3 h, 310 nM CDA 1 h before; TOC=30 ppm, 30° C.
Method: 310 nM CDA and bromine-containing biocide were introduced into a mix of planktonic bacteria in a medium containing different levels of organic loading (TOC 10-3000 ppm). High organic loading tends to reduce the efficacy of antimicrobial agents in industrial applications and, therefore, the test was aimed to mimic these conditions. The test was performed in accordance with the modified European standard EN 1040: 2005: “Chemical disinfectants and antiseptics—Quantitative suspension test for the evaluation of basic bactericidal activity of chemical disinfectants and antiseptics—Tests method and requirements (phase 1)”. 19 ml of phosphate buffer solution (pH=7) including tryptone in order to obtain a solution of TOC=30 ppm, and 1 ml of the tested bacteria suspension (consisted of E. Coli (ATCC 11229), S. aureus (ATCC 6538), Enterobacter aerogenes (ATCC 130489) and P. aeruginosa (ATCC 13388)), at a concentration of 1.5×10^8-5×10^8 CFU/ml, were placed into a container of suitable capacity. A stopwatch was started immediately and the container was placed in a water bath controlled at 30° C.
The activity was determined with 2.5 ppm BCDMH alone for a contact time of 3 hours. […] Countable plates were counted and the number of colony-forming units was determined, for each plate.

[5] = Storage stability of biocide/CDA liquid concentrates (HPLC); assay type: physicochemical
Method: 22 mg of cis-2-decenoic acid (CiVentiChem, 96.72% purity) were charged into 50 ml flask, equipped with a stirrer 3.99 gr of C-103 (ICL, batch 640160147) were added, followed by 9.97 gr of PEG200 (Merck 8.07483.5000 Lot 56904983 451), 5.95 gr of DI water and 22 mg of BHT (Aldrich B1378-100G, BCBH9491V). The obtained solution was stirred till complete clarification; sonication at +30° C. is recommended if some particles are observed. Clear colorless solution of a total […] and 20:50:30:0.1:0.1 weight ratio of C103-PEG200-H2O-CDA-BHT was obtained.
The solution was tested to determine the stability of the biocide and CDA and under storage at 25° C. over a two-month period.
47.6 mg or cis-2-decenoic acid (CiVentiChem, 96.72% purity) were charged into 50 ml flask, equipped with a stirrer. 9.01 gr of Bronopol (ICL, batch 17101607) were added, followed by 18.03 gr of propylene glycol (Biolab 16200201 Lot 1007861), 3.0 gr of DI water and 31.2 mg of BHT (Aldrich B1378-100G, BCBH9491V). After stirring for several minutes, undissolved traces of BHT were filtered through filtering paper for BHT particle removal. Clear colorless solution of a total 30 gr and 30:60:10:0.158:0.1 weight ratio of Bronopol-PG-H2O-CDA-BHT was obtained.

P. aeruginosa biofilm = experiment: Simultaneous application of CDA salt form and biocide on 3-day biofilm, CDC biofilm reactor, pH 8-9; assay type: cell-based, Pseudomonas aeruginosa; details: 310 nM CDA, 1 h
[6] = Stepwise acidification of CDA sodium/lithium salt (pKa); assay type: physicochemical

CC1(C)C(=O)N(Cl)C(=O)N1Br [BCDMH, 1-bromo-3-chloro-5,5-dimethylhydantoin]
enhancement by combined treatment relative to biocide alone ([1]; 10 ppm BCDMH, 31 nM commercial CDA (FIG. 13)): 4.5 log units
enhancement by combined treatment relative to biocide alone ([1]; 10 ppm BCDMH, 310 nM commercial CDA (FIG. 13)): 4.5 log units
enhancement by combined treatment relative to biocide alone ([1]; 10 ppm BCDMH, 3100 nM commercial CDA (FIG. 13)): 5.5 log units
effect of 5.0 ppm biocide with 310 nM CDA relative to 10 ppm biocide without CDA ([1]; Example 3, sequential, FIG. 14): comparable
reduction by biocide/CDA combination versus the solely applied biocide ([1]; Example 8, 5 ppm biocide/310 nM CDA, sequential (FIG. 17)): 4.5 log units
effect on biofilm of biocides applied alone, compared with each other [1]: comparable effect
Log reduction vs. control: biocide alone ([1]; biocide 10 ppm, 1 h contact time, 3-day-old biofilm): ~3.5 log units
Enhancement ([1]; biocide 10 ppm, 310 nM CDA combination vs biocide alone): ~2.5 log units
Log reduction vs. control: combination of the 310 nM CDA and biocide ([1]; biocide 10 ppm, 1 h CDA 310 nM then 1 h biocide): ~6 log units
enhancement by combined treatment relative to biocide alone ([1]; text of Example 2, biocide 10 ppm, 310 nM commercial CDA (97% by GC)): ~2 log units
enhancement by combined treatment relative to biocide alone ([1]; text of Example 2, biocide 10 ppm, 310 nM crude CDA (90% by GC)): ~2 log units
biofilm reduction by biocide alone ([1]; text of Example 2, biocide 10 ppm, 1 h): ~3 log units
biofilm reduction by biocide alone ([2]; biocide 5 ppm or 10 ppm, mixed bacteria biofilm): reduces the biofilm
enhancement by combined treatment relative to biocide alone ([2]; biocide 5 ppm, 310 nM commercial CDA, mixed bacteria biofilm (FIG. 12A)): ~2.5 log units
enhancement by combined treatment relative to biocide alone ([2]; biocide 10 ppm, 310 nM commercial CDA, mixed bacteria biofilm (FIG. 12B)): ~5.5 log units
Log reduction vs. control: biocide alone ([2]; biocide 10 ppm, 1 h, biofilm formed by mixed bacteria): ~2 log units
Enhancement ([2]; biocide 10 ppm, 310 nM CDA combination vs biocide alone, mixed bacteria biofilm): ~5.5 log units
Log reduction vs. control: combination of the 310 nM CDA and biocide ([2]; biocide 10 ppm, 1 h CDA 310 nM then 1 h biocide, mixed bacteria biofilm): ~7.5 log units
log reduction of biocide and CDA compared with biocide alone ([3]; 10 ppm BCDMH, 310 nM CDA, one hour (FIG. 4)): 2
Log reduction vs. control: biocide alone ([3]; 2 hours contact time): ~4 log units
Enhancement ([3]; 2 hours contact time): ~2 log units
Log reduction vs. control: combination of the 310 nm CDA and biocide ([3]; 2 hours contact time): ~6 log units
enhancement by CDA and biocide in sequence compared with biocide without CDA [4]: 2 log units

O=[N+]([O-])C(Br)(CO)CO [Bronopol, 2-bromo-2-nitro-1,3-propanediol]
reduction of number of bacteria by addition of CDA to the biocide treatment ([3]; 10 ppm bronopol, 310 nM CDA, two hours of treatment (FIG. 2A)): more than an order of magnitude
Log reduction vs. control: biocide alone ([3]; 24 hours contact time): ~6 log units
Log reduction vs. control: biocide alone ([3]; 24 hours contact time, listed as bronopol): very effective in reducing biofilm
Enhancement ([3]; 24 hours contact time): ~3 log units
Log reduction vs. control: combination of the 310 nm CDA and biocide ([3]; 24 hours contact time): effective in eradicating P. aeruginosa biofilm; also recorded: biofilm eradication
degradation under storage (HPLC) [5]: Neither bronopol nor CDA underwent degradation

CCCCCCC/C=C\C(=O)O [CDA, cis-2-decenoic acid]
effect of CDA alone on biofilm compared to the control [1]: no useful effect
effect of CDA alone on biofilm compared to the control ([1]; 310 nM CDA, commercial (97%) or crude (90%), 1 h): no useful effect
biocidal action of CDA alone (reduction of bacterial counts) ([1]; CDA on its own, broad concentration range, even >3000 nM): failed to demonstrate biocidal action
effect of CDA alone on biofilm compared to the control ([2]; 310 nM commercial CDA, mixed bacteria biofilm): no useful effect
degradation under storage (HPLC) ([5]; Example 6 concentrate C103-PEG200-H2O-CDA-BHT 20:50:30:0.1:0.1, 25° C., two months): Neither DBNPA nor CDA underwent degradation
degradation under storage (HPLC) ([5]; Example 7 concentrate Bronopol-PG-H2O-CDA-BHT 30:60:10:0.158:0.1, 25° C., two months): Neither bronopol nor CDA underwent degradation
effect of CDA alone on biofilm compared to the control (P. aeruginosa biofilm): no useful effect
pKa [6]: 6.5 to 7.5

OCl [sodium hypochlorite, Sodium hypochlorite, reference compound]
reduction by biocide/CDA combination versus the solely applied biocide [1]: 2 log units
effect on biofilm of biocides applied alone, compared with each other [1]: comparable effect

— patent publication US12557812B2, “Method and composition for water treatment” (BROMINE COMPOUNDS LTD., priority 2019, dated 2026)
